Reference: patent publication US20040209914A1, “Aromatic sulfone hydroxamic acids and their use as protease inhibitors” (priority 2000, published 2004)
Read-outs that look alike come from different tables or passages of the source.

Tests used:
[1] = tested on: solid tumor cancers (colorectal, pancreatic, ovarian, and prostate); conditions: patients with advanced, rapidly progressive, treatment-refractory solid tumor cancers; cited from earlier work
Recombinant human MMP-1 = molecular target: T1, Recombinant human MMP-1 (Homo sapiens, UniProt P03956); assay: biochemical; conditions: fluorogenic MCA-peptide substrate, pH 7.5, room temperature
T1 construct: made in house; host or cells: transfected HT-1080 cells
T1 sequence (P03956 100-469): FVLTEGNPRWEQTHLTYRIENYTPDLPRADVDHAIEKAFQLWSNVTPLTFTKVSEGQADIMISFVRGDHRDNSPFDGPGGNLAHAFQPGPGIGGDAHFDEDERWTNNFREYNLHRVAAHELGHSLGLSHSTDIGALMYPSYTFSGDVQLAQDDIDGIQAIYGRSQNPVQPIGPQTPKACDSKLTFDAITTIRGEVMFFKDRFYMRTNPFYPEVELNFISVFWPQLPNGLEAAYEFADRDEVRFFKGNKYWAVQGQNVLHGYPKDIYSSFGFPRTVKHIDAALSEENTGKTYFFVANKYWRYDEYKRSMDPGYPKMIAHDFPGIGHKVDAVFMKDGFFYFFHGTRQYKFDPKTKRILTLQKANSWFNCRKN
Outline: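 Recombinant human MMP-1 from transfected HT-1080 cells, APMA-activated and hydroxamate-column purified, was incubated at room temperature with 4 uM MCA-ProLeuGlyLeuDpaAlaArgNH2 fluorogenic substrate. Inhibition taken as fall in fluorescence versus inhibitor concentration, giving IC50.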

Recombinant human MMP-2 = molecular target: T2, Recombinant human MMP-2 (Homo sapiens, UniProt P08253); assay: biochemical; conditions: fluorogenic MCA-peptide substrate, pH 7.5, room temperature
T2 construct: made in house
T2 sequence (P08253 110-660): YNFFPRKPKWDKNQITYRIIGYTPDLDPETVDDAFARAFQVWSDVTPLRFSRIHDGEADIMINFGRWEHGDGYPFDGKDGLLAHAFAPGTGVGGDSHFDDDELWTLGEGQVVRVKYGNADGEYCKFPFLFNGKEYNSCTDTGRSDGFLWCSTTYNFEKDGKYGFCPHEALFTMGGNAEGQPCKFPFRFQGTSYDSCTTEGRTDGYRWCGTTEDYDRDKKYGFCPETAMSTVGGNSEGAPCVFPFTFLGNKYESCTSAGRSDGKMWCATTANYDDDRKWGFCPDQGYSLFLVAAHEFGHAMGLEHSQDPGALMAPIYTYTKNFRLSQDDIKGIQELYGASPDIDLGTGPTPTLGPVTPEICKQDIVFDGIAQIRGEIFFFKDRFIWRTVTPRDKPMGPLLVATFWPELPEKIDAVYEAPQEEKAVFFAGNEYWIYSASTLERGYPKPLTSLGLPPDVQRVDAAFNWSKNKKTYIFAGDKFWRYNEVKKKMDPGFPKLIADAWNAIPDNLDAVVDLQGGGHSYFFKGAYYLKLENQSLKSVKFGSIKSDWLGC
Outline: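 Activated (APMA or trypsin) recombinant human MMP-2, from transfected expressing cells, incubated at room temperature with 4 uM fluorogenic substrate MCA-Pro-Leu-Gly-Leu-Dpa-Ala-Arg-NH2 and hydroxamate inhibitor.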

Recombinant human MMP-13 = molecular target: T3, Recombinant human MMP-13 (Homo sapiens, UniProt P45452); assay: biochemical; conditions: fluorogenic MCA-peptide substrate, pH 7.5, room temperature; read-out: MMP-13 IC50
T3 construct: made in house; host or cells: baculovirus / insect cells
Outline: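 APMA-activated MMP (proenzyme purified on heparin agarose and chelating zinc columns) incubated at room temperature with 4 uM fluorogenic MCA-ProLeuGlyLeuDpaAlaArgNH2 substrate. Inhibition read as reduced fluorescence versus inhibitor concentration relative to a DMSO control, giving IC50.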

SMILES | effect on cancer-specific antigens used as surrogate markers for biological activity [1] | IC50 (Recombinant human MMP-1) [nM] | IC50 (Recombinant human MMP-2; read-out: MMP-2 IC50) [nM] | IC50 (Recombinant human MMP-13) [nM] | IC50 (Recombinant human MMP-2; MMP-2 IC50(nM)) [nM]
CNC(=O)[C@@H](NC(=O)[C@H](CC(C)C)[C@H](O)C(=O)NO)C(C)(C)C [Marimastat] | dose-related reduction in the rise of cancer-specific antigens |  |  |  | 
O=C(CN1CCN(C(=O)C2CCN(c3ccc(S(=O)(=O)C4(C(=O)NO)CCOCC4)cc3)CC2)CC1)N1CCCC1 [Example 16] |  | > 10000 | 4800 | 42.5 | 
O=C(c1ccc(CCC2CCCC2)cc1)C1CCN(c2ccc(S(=O)(=O)C3(C(=O)NO)CCN(C4CC4)CC3)cc2)CC1 [Example 199] |  | > 10000 | 3390 | 11.7 | 
C=CCN1CCN(C(=O)C2CCN(c3ccc(S(=O)(=O)C4(C(=O)NO)CCOCC4)cc3)CC2)CC1 [Example 34] |  | > 10000 | 3700 | 19.3 | 
CC(=O)c1ccc(N2CCN(C(=O)C3CCN(c4ccc(S(=O)(=O)C5(C(=O)NO)CCOCC5)cc4)CC3)CC2)cc1 [Example 24] |  | > 10000 |  | 6.7 | 700
CC(C)Cc1ccc(C(=O)C2CCN(c3ccc(S(=O)(=O)C4(C(=O)NO)CCN(C5CC5)CC4)cc3)CC2)cc1 [Example 189] |  | > 10000 | 258 | < 0.1 | 
C#CCN1CCC(C(=O)NO)(S(=O)(=O)c2ccc(N3CCC(C(=O)c4ccc(C)cc4)CC3)cc2)CC1 [Example 152] |  | > 10000 | 56.3 | 0.6 | 
